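Exposure lasted 48 hours, with cells grown in 96-well plates and compounds tested at five concentrations. GI50 marks 50% less growth. TGI: concentration producing complete growth inhibition.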
Legend:
Experiment in all cases: inhibition of tumour cell growth, NCI panel, 48 h
[1] = system: MOLT-4 leukemia
[2] = system: SF-539 CNS
[3] = system: NCI-H460 lung
[4] = system: HCT-116 colon
[5] = system: IGROV1 ovarian
[6] = system: PC-3 prostate
[7] = system: EKVX NSCLC
[8] = system: BT-549 breast
[9] = system: RPMI-8226 leukemia
[10] = system: DU-145 prostate
[11] = system: SN12C renal
[12] = system: MDA-MB-435
[13] = system: MDA-MB-231 breast
[14] = system: NCI-H226 lung
[15] = system: MALME-3M melanoma
[16] = system: HS 578T breast
[17] = system: A498 renal
[18] = system: MDA-MB-468 breast
[19] = system: SK-OV-3 ovarian
[20] = system: NCI-H522 lung
[21] = system: OVCAR-3 ovarian
[22] = system: MCF7 breast
[23] = system: SNB-19 CNS
[24] = system: ACHN renal
[25] = system: RXF 393 renal
[26] = system: SK-MEL-5 melanoma
[27] = system: 786-0 renal

Question: How did the GI50 [1] turn out when O=C(/C=C/c1cccc(OCc2ccccc2)c1)c1nc2ccccc2[nH]1 was run?
Answer: Its GI50 is 5.28 µM.

Question: What about the TGI [1] of the same compound?
Answer: Its TGI is 55.1 µM.

Question: And the GI50 [2]?
Answer: Its GI50 is 8.82 µM.

Question: What about the TGI [2] of the same compound?
Answer: The TGI was 26.7 µM.

Question: What about the GI50 [3] of the same compound?
Answer: The GI50 was 15.4 µM.

Question: What about the TGI [3] of the same compound?
Answer: Its TGI is over 100 µM.

Question: And the GI50 [4]?
Answer: Its GI50 is 3.2 µM.

Question: What about the TGI [4] of the same compound?
Answer: The TGI was over 100 µM.

Question: What about the GI50 [5] of the same compound?
Answer: The GI50 was 14 µM.

Question: And the TGI [5]?
Answer: The TGI was 78.2 µM.

Question: What about the GI50 [6] of the same compound?
Answer: The GI50 was 15.9 µM.

Question: And the TGI [6]?
Answer: Its TGI is over 100 µM.

Question: And the GI50 [7]?
Answer: The GI50 was 19.9 µM.

Question: What about the TGI [7] of the same compound?
Answer: Its TGI is 69.7 µM.

Question: What about the GI50 [8] of the same compound?
Answer: Its GI50 is 11.4 µM.

Question: What about the TGI [8] of the same compound?
Answer: Its TGI is 40.2 µM.

Question: What about the GI50 [9] of the same compound?
Answer: The GI50 was 2860 nM.

Question: What about the TGI [9] of the same compound?
Answer: The TGI was 8.3 µM.

Question: And the GI50 [10]?
Answer: Its GI50 is 54.6 µM.

Question: What about the TGI [10] of the same compound?
Answer: Its TGI is over 100 µM.

Question: What about the GI50 [11] of the same compound?
Answer: Its GI50 is 38 µM.

Question: And the TGI [11]?
Answer: The TGI was over 100 µM.

Question: And the GI50 [12]?
Answer: The GI50 was over 100 µM.

Question: And the TGI [12]?
Answer: The TGI was over 100 µM.

Question: What about the GI50 [13] of the same compound?
Answer: The GI50 was 11.9 µM.

Question: What about the TGI [13] of the same compound?
Answer: The TGI was 42.5 µM.

Question: And the GI50 [14]?
Answer: Its GI50 is 24.3 µM.

Question: What about the TGI [14] of the same compound?
Answer: Its TGI is over 100 µM.

Question: What about the GI50 [15] of the same compound?
Answer: The GI50 was 28.3 µM.

Question: And the TGI [15]?
Answer: Its TGI is over 100 µM.

Question: What about the GI50 [16] of the same compound?
Answer: The GI50 was 20.3 µM.

Question: And the TGI [16]?
Answer: The TGI was 82.5 µM.

Question: And the GI50 [17]?
Answer: The GI50 was 25 µM.

Question: And the TGI [17]?
Answer: Its TGI is over 100 µM.

Question: And the GI50 [18]?
Answer: The GI50 was 10.7 µM.

Question: And the TGI [18]?
Answer: The TGI was 82.5 µM.

Question: And the GI50 [19]?
Answer: The GI50 was 20.2 µM.

Question: And the TGI [19]?
Answer: The TGI was 73.9 µM.

Question: What about the GI50 [20] of the same compound?
Answer: Its GI50 is 26.3 µM.

Question: And the TGI [20]?
Answer: The TGI was over 100 µM.

Question: And the GI50 [21]?
Answer: Its GI50 is 4.01 µM.

Question: And the TGI [21]?
Answer: Its TGI is over 100 µM.

Question: What about the GI50 [22] of the same compound?
Answer: Its GI50 is 2900 nM.

Question: And the TGI [22]?
Answer: Its TGI is over 100 µM.

Question: What about the GI50 [23] of the same compound?
Answer: The GI50 was 13.6 µM.

Question: And the TGI [23]?
Answer: Its TGI is 41.1 µM.

Question: What about the GI50 [24] of the same compound?
Answer: The GI50 was 29.6 µM.

Question: What about the TGI [24] of the same compound?
Answer: Its TGI is over 100 µM.

Question: And the GI50 [25]?
Answer: Its GI50 is 10.5 µM.

Question: What about the TGI [25] of the same compound?
Answer: The TGI was 27.9 µM.

Question: What about the GI50 [26] of the same compound?
Answer: The GI50 was 39.1 µM.

Question: What about the TGI [26] of the same compound?
Answer: Its TGI is over 100 µM.

Question: What about the GI50 [27] of the same compound?
Answer: Its GI50 is 14 µM.

Question: What about the TGI [27] of the same compound?
Answer: The TGI was 44.1 µM.

Reference: PubChem BioAssay (NCI)
